In US10392422B2, “Macrocyclic broad spectrum antibiotics” (priority 2014, dated 2019):

Assays:
MRSA strain USA300 = assay: SIC determination with partner beta-lactam antibiotics; type: cell-based, Staphylococcus aureus
Procedure: Many compounds in the Examples, including Compound 155, synergize with a wide range of beta-lactam antibiotics as quantified by SIC determination, where the SIC is measured and defined in a manner identical to the MIC, […] being tested.

[1] = system: Escherichia coli MC4100 harboring the IMP4213; assay: MIC, broth micro-dilution technique (CLSI); type: cell-based; conditions: Table 1 protocol: serial 2-fold dilutions starting from 64 μg/ml; 35° C., 22 hours
Procedure, shortened: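 CLSI broth microdilution in cation-adjusted Mueller Hinton broth with 0.002% v/v Tween-80. Compounds were serially 2-fold diluted over 10 concentrations from 64 μg/ml, or from 4 μg/mL in a modified protocol; inoculum at final OD600 0.0005, incubated 35° C for 22 hours.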

[2] = system: Methicillin Resistant Staphylococcus aureus strain USA 300 (NRS384); assay: MIC, broth micro-dilution technique (CLSI); type: cell-based; conditions: Table 1 protocol: serial 2-fold dilutions starting from 64 μg/ml; 35° C., 22 hours
Procedure, shortened: (§1)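 Cation-adjusted MHB + 0.002% Tween-80; 10-point 2-fold series starting 64 μg/ml (modified protocol: 4 μg/mL). Final inoculum OD600 0.0005; 35° C, 22 h. MIC per CLSI M07-A8 broth microdilution.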

MRSA COL (NRS100) = assay: MIC, broth micro-dilution technique (CLSI); type: cell-based, Staphylococcus aureus; conditions: Table 1 protocol: serial 2-fold dilutions starting from 64 μg/ml; 35° C., 22 hours
Procedure, shortened: as §1

CCCCCCCCCCNCCC(=O)N[C@@H](CCCCN)C(=O)N(C)[C@@H]1C(=O)N[C@@H](C)C(=O)N[C@H](C(=O)N[C@@H](C)C(=O)N2CCC[C@H]2C(N)=O)Cc2ccc(O)c(c2)-c2cc1ccc2O.O=CO [Compound 155]
Compound 155 SIC (MRSA strain USA300; MRSA strain USA300, media contains partner beta-lactam Amoxicillin/Clav at 1/4x its MIC): 0.25 µg/mL | Compound 155 SIC (MRSA strain USA300; MRSA strain USA300, media contains partner beta-lactam Ampicillin at 1/4x its MIC): 1 µg/mL | Compound 155 SIC (MRSA strain USA300; MRSA strain USA300, media contains partner beta-lactam Azlocillin at 1/4x its MIC): 1 µg/mL | Compound 155 SIC (MRSA strain USA300; MRSA strain USA300, media contains partner beta-lactam Biapenem at 1/4x its MIC): 0.0625 µg/mL | Compound 155 SIC (MRSA strain USA300; MRSA strain USA300, media contains partner beta-lactam Carbenicillin at 1/4x its MIC): 0.5 µg/mL | Compound 155 SIC (MRSA strain USA300; MRSA strain USA300, media contains partner beta-lactam Cefaclor at 1/4x its MIC): 0.25 µg/mL | Compound 155 SIC (MRSA strain USA300; MRSA strain USA300, media contains partner beta-lactam Cefamandole at 1/4x its MIC): 0.25 µg/mL | Compound 155 SIC (MRSA strain USA300; MRSA strain USA300, media contains partner beta-lactam Cefazolin at 1/4x its MIC): 0.125 µg/mL | Compound 155 SIC (MRSA strain USA300; MRSA strain USA300, media contains partner beta-lactam Cefdinir at 1/4x its MIC): ≤0.0156 µg/mL | Compound 155 SIC (MRSA strain USA300; MRSA strain USA300, media contains partner beta-lactam Cefepime at 1/4x its MIC): 0.125 µg/mL | Compound 155 SIC (MRSA strain USA300; MRSA strain USA300, media contains partner beta-lactam Cefixime at 1/4x its MIC): 0.25 µg/mL | Compound 155 SIC (MRSA strain USA300; MRSA strain USA300, media contains partner beta-lactam Cefmetazole at 1/4x its MIC): 0.5 µg/mL | Compound 155 SIC (MRSA strain USA300; MRSA strain USA300, media contains partner beta-lactam Cefonicid at 1/4x its MIC): 0.25 µg/mL | Compound 155 SIC (MRSA strain USA300; MRSA strain USA300, media contains partner beta-lactam Cefotaxime at 1/4x its MIC): 0.125 µg/mL | Compound 155 SIC (MRSA strain USA300; MRSA strain USA300, media contains partner beta-lactam Cefotetan at 1/4x its MIC): 0.5 µg/mL | Compound 155 SIC (MRSA strain USA300; MRSA strain USA300, media contains partner beta-lactam Cefoxitin at 1/4x its MIC): 0.25 µg/mL | Compound 155 SIC (MRSA strain USA300; MRSA strain USA300, media contains partner beta-lactam Cefpodoxime at 1/4x its MIC): 0.125 µg/mL | Compound 155 SIC (MRSA strain USA300; MRSA strain USA300, media contains partner beta-lactam Cefprozil at 1/4x its MIC): 0.25 µg/mL | Compound 155 SIC (MRSA strain USA300; MRSA strain USA300, media contains partner beta-lactam Ceftazidime at 1/4x its MIC): 0.5 µg/mL | Compound 155 SIC (MRSA strain USA300; MRSA strain USA300, media contains partner beta-lactam Ceftizoxime at 1/4x its MIC): 0.25 µg/mL | Compound 155 SIC (MRSA strain USA300; MRSA strain USA300, media contains partner beta-lactam Ceftriaxone at 1/4x its MIC): 0.0625 µg/mL | Compound 155 SIC (MRSA strain USA300; MRSA strain USA300, media contains partner beta-lactam Cephalothin at 1/4x its MIC): 0.0625 µg/mL | Compound 155 SIC (MRSA strain USA300; MRSA strain USA300, media contains partner beta-lactam Doripenem at 1/4x its MIC): 0.125 µg/mL | Compound 155 SIC (MRSA strain USA300; MRSA strain USA300, media contains partner beta-lactam Ertapenem at 1/4x its MIC): 0.25 µg/mL | Compound 155 SIC (MRSA strain USA300; MRSA strain USA300, media contains partner beta-lactam Faropenem at 1/4x its MIC): ≤0.0156 µg/mL | Compound 155 SIC (MRSA strain USA300; MRSA strain USA300, media contains partner beta-lactam Imipenem at 1/4x its MIC): 0.125 µg/mL | Compound 155 SIC (MRSA strain USA300; MRSA strain USA300, media contains partner beta-lactam Mecillinam at 1/4x its MIC): 1 µg/mL | Compound 155 SIC (MRSA strain USA300; MRSA strain USA300, media contains partner beta-lactam Meropenem at 1/4x its MIC): 0.25 µg/mL | Compound 155 SIC (MRSA strain USA300; MRSA strain USA300, media contains partner beta-lactam Methicillin at 1/4x its MIC): 0.25 µg/mL | Compound 155 SIC (MRSA strain USA300; MRSA strain USA300, media contains partner beta-lactam Mezlocillin at 1/4x its MIC): 0.5 µg/mL | Compound 155 SIC (MRSA strain USA300; MRSA strain USA300, media contains partner beta-lactam Moxalactam at 1/4x its MIC): 0.125 µg/mL | Compound 155 SIC (MRSA strain USA300; MRSA strain USA300, media contains partner beta-lactam Oxacillin at 1/4x its MIC): 0.125 µg/mL | Compound 155 SIC (MRSA strain USA300; MRSA strain USA300, media contains partner beta-lactam Piperacillin/tazobactam at 1/4x its MIC): 0.5 µg/mL | Compound 155 SIC (MRSA strain USA300; MRSA strain USA300, media contains partner beta-lactam Ticarcillin at 1/4x its MIC): 0.125 µg/mL | Fold reduction in Compound 155 MIC (MRSA strain USA300; MRSA strain USA300, partner beta-lactam Amoxicillin/Clav at 1/4x its MIC): 16 | Fold reduction in Compound 155 MIC (MRSA strain USA300; MRSA strain USA300, partner beta-lactam Ampicillin at 1/4x its MIC): 4 | Fold reduction in Compound 155 MIC (MRSA strain USA300; MRSA strain USA300, partner beta-lactam Azlocillin at 1/4x its MIC): 4 | Fold reduction in Compound 155 MIC (MRSA strain USA300; MRSA strain USA300, partner beta-lactam Biapenem at 1/4x its MIC): 64 | Fold reduction in Compound 155 MIC (MRSA strain USA300; MRSA strain USA300, partner beta-lactam Carbenicillin at 1/4x its MIC): 8 | Fold reduction in Compound 155 MIC (MRSA strain USA300; MRSA strain USA300, partner beta-lactam Cefaclor at 1/4x its MIC): 16 | Fold reduction in Compound 155 MIC (MRSA strain USA300; MRSA strain USA300, partner beta-lactam Cefamandole at 1/4x its MIC): 16 | Fold reduction in Compound 155 MIC (MRSA strain USA300; MRSA strain USA300, partner beta-lactam Cefazolin at 1/4x its MIC): 32 | Fold reduction in Compound 155 MIC (MRSA strain USA300; MRSA strain USA300, partner beta-lactam Cefdinir at 1/4x its MIC): >256 | Fold reduction in Compound 155 MIC (MRSA strain USA300; MRSA strain USA300, partner beta-lactam Cefepime at 1/4x its MIC): 32 | Fold reduction in Compound 155 MIC (MRSA strain USA300; MRSA strain USA300, partner beta-lactam Cefixime at 1/4x its MIC): 16 | Fold reduction in Compound 155 MIC (MRSA strain USA300; MRSA strain USA300, partner beta-lactam Cefmetazole at 1/4x its MIC): 8 | Fold reduction in Compound 155 MIC (MRSA strain USA300; MRSA strain USA300, partner beta-lactam Cefonicid at 1/4x its MIC): 16 | Fold reduction in Compound 155 MIC (MRSA strain USA300; MRSA strain USA300, partner beta-lactam Cefotaxime at 1/4x its MIC): 32 | Fold reduction in Compound 155 MIC (MRSA strain USA300; MRSA strain USA300, partner beta-lactam Cefotetan at 1/4x its MIC): 8 | Fold reduction in Compound 155 MIC (MRSA strain USA300; MRSA strain USA300, partner beta-lactam Cefoxitin at 1/4x its MIC): 16 | Fold reduction in Compound 155 MIC (MRSA strain USA300; MRSA strain USA300, partner beta-lactam Cefpodoxime at 1/4x its MIC): 32 | Fold reduction in Compound 155 MIC (MRSA strain USA300; MRSA strain USA300, partner beta-lactam Cefprozil at 1/4x its MIC): 16 | Fold reduction in Compound 155 MIC (MRSA strain USA300; MRSA strain USA300, partner beta-lactam Ceftazidime at 1/4x its MIC): 8 | Fold reduction in Compound 155 MIC (MRSA strain USA300; MRSA strain USA300, partner beta-lactam Ceftizoxime at 1/4x its MIC): 16 | Fold reduction in Compound 155 MIC (MRSA strain USA300; MRSA strain USA300, partner beta-lactam Ceftriaxone at 1/4x its MIC): 64 | Fold reduction in Compound 155 MIC (MRSA strain USA300; MRSA strain USA300, partner beta-lactam Cephalothin at 1/4x its MIC): 64 | Fold reduction in Compound 155 MIC (MRSA strain USA300; MRSA strain USA300, partner beta-lactam Doripenem at 1/4x its MIC): 32 | Fold reduction in Compound 155 MIC (MRSA strain USA300; MRSA strain USA300, partner beta-lactam Ertapenem at 1/4x its MIC): 16 | Fold reduction in Compound 155 MIC (MRSA strain USA300; MRSA strain USA300, partner beta-lactam Faropenem at 1/4x its MIC): >256 | Fold reduction in Compound 155 MIC (MRSA strain USA300; MRSA strain USA300, partner beta-lactam Imipenem at 1/4x its MIC): 32 | Fold reduction in Compound 155 MIC (MRSA strain USA300; MRSA strain USA300, partner beta-lactam Mecillinam at 1/4x its MIC): 4 | Fold reduction in Compound 155 MIC (MRSA strain USA300; MRSA strain USA300, partner beta-lactam Meropenem at 1/4x its MIC): 16 | Fold reduction in Compound 155 MIC (MRSA strain USA300; MRSA strain USA300, partner beta-lactam Methicillin at 1/4x its MIC): 16 | Fold reduction in Compound 155 MIC (MRSA strain USA300; MRSA strain USA300, partner beta-lactam Mezlocillin at 1/4x its MIC): 8 | Fold reduction in Compound 155 MIC (MRSA strain USA300; MRSA strain USA300, partner beta-lactam Moxalactam at 1/4x its MIC): 32 | Fold reduction in Compound 155 MIC (MRSA strain USA300; MRSA strain USA300, partner beta-lactam Oxacillin at 1/4x its MIC): 32 | Fold reduction in Compound 155 MIC (MRSA strain USA300; MRSA strain USA300, partner beta-lactam Piperacillin/tazobactam at 1/4x its MIC): 8 | Fold reduction in Compound 155 MIC (MRSA strain USA300; MRSA strain USA300, partner beta-lactam Ticarcillin at 1/4x its MIC): 32 | Compound 155 MIC (MRSA strain USA300; MRSA strain USA300, partner beta-lactam: None): 4 µg/mL | synergy with beta-lactam antibiotics as quantified by SIC determination (MRSA strain USA300; SIC less than or equal to 1/4 MIC means sum of the FICs ≤0.5, indicating synergy): synergize | MIC (μg/mL) E. coli [1]: 64 µg/mL | MIC (μg/mL) S. aureus [2]: 2.8 µg/mL | MIC (μg/mL) (COL) (MRSA COL (NRS100)): 1.3 µg/mL
